# Measured values reported in patent US20200010903A1, “AAV-Mediated Direct In vivo CRISPR Screen in Glioblastoma” (YALE UNIVERSITY, priority 2017, published 2020).
# What was measured:
# Type in all cases: cell-based, mouse
# [1] = test system: Rb1; Zc3h13 GBM cells; assay: RNA-seq differential expression, TMZ vs DMSO; details: 1 mM TMZ vs DMSO, 48 h
# Procedure: (§1) Temozolomide (TMZ) treatment, Cell viability assay, and RNAseq: After 7-9 days' culture under puromycin selection, lentiviruses-infected Nf1 and Rb1 knockout tumor cells were plated in triplicates into 96-well plate at a density of 2.5×10^3 cells per well, and ˜5×10^6 cells were collected at the same time and used for cutting efficiency analysis. One day after plating, either TMZ or DMSO was added at a concentration of 10 μM, 100 μM, 500 μM, 1 mM, and 2 mM. After 3 days of drug/vehicle treatment, cell viability was measured using CellTiter Glo (Promega) according to the manufactures' protocol. Briefly, the CellTiter Glo was equilibrated at room temperature for 1 h before use. The media of 96-well plates was aspirated, and then 50 μL fresh DMEM+10% FBS and 50 μL CellTiter Glo was added. The luminescent signals were readout using EnVision plate reader (PerkinElmer). For RNAseq samples preparation, cell lines harboring specific gene knockouts were cultured for 7-9 days under the selection pressure of puromycin, and then plated into 6-well plates at a density of 2×10^5 cells per well in triplicates. 24 h after plating, 1 mM TMZ or DMSO in fresh DEME+10% FBS was added and cultured for another 48 h. Then, cellular RNA of control or treated cells were extracted by adding 350 μL TRIzol Reagent (Invitrogen) directly into 6-well plates to lyse the cells, followed by gently shaking the plates and incubation for 5-10 min to complete and lysis and homogenization. Then, 70 μL chloroform was added, vigorously mixed, and centrifuged at 16,000 g for 15 min. Transfer the RNA containing aqueous phase to a new tube and further purified using RNeasy mini kit (Qiagen). After eluting RNA from column using Nuclease free water, the concentrations of sample RNA were normalized into 150-300 ng/uL for RNAseq.
# (§2) Transcriptome profiling of different driver combinations in the presence and absence of chemotherapy: Mixtures of five sgRNAs targeting each gene were cloned as sgRNA minipool into the same astrocyte-specific AAV-CRISPR vector. After packaging, AAV minipools were stereotaxically injected into the lateral ventricle of LSL-Cas9 mice. Cell lines were derived from mouse GBMs by single-cell isolation, plating and culture in DMEM media. Additional driver mutations were introduced by lentiCRISPR where applicable. GBM cells with different drivers were treated with DMSO or TMZ for 48 h, and harvested for mRNA-seq for transcriptome profiling. Briefly, total RNA was extracted from cancer cells derived from AAV-CRISPR minipools induced GBM treated with DMSO or TMZ, using commercially available kits (Qiagen/Thermofisher). PolyA-mRNA library was constructed using Illumina TruSeq mRNA library prep kit, and sequenced on Illumina Hiseq 2500 and/or Hiseq 4000 platform.
# (§3) RNA-seq differential expression analysis: Strand-specific single-end RNA-seq read files were analyzed to obtain transcript level counts using Kallisto, with the settings --rf-stranded -b 100. The counts were subsequently passed to the tximport R package to collapse to gene level counts. Pairwise differential expression analysis between groups was then performed using edgeR with default settings.
# [2] = test system: Rb1 GBM cells; assay: RNA-seq differential expression, TMZ vs DMSO; details: 1 mM TMZ vs DMSO, 48 h
# Procedure: as §1, §2, §3
# [3] = test system: Rb1; Pten GBM cells; assay: RNA-seq differential expression, TMZ vs DMSO; details: 1 mM TMZ vs DMSO, 48 h
# Procedure: as §1, §2, §3
# [4] = test system: Rb1, Rb1; Pten, and Rb1; Zc3h13 GBM cells; assay: RNA-seq TMZ vs DMSO, overlap of differentially expressed genes between genotypes
# Procedure: as §1
# as §2, with “Briefly, total RNA was extracted from cancer cells derived from AAV-CRISPR minipools induced GBM treated with DMSO or TMZ, using commercially available kits (Qiagen/Thermofisher). PolyA-mRNA library was constructed using Illumina TruSeq mRNA library prep kit, and sequenced on Illumina Hiseq 2500 and/or Hiseq 4000 platform.” left out
# RNA-seq differential expression analysis: Strand-specific single-end RNA-seq read files were analyzed to obtain transcript level counts using Kallisto, with the settings --rf-stranded -b 100. […]
# [5] = shared by Rb1, Rb1, Pten, Rb1, Zc3h13
compound,measurement,setting,value
"Cn1nnc2c(C(N)=O)ncn2c1=O [TMZ, temozolomide]",genes significantly higher in DMSO-treated cells,[1],166 genes
same,genes significantly higher in TMZ-treated cells,[1],703 genes
same,genes significantly higher in DMSO-treated cells (TMZ-reduced genes),[2],332 genes
same,genes significantly higher in TMZ-treated cells (TMZ-induced genes),"[2]; adjusted p<0.05, log fold change ≥1 or ≤−1",352 genes
same,genes significantly higher in DMSO-treated cells,[3],313 genes
same,genes significantly higher in TMZ-treated cells,[3],345 genes
same,"genes significantly reduced upon TMZ treatment in Rb1; Zc3h13 and Rb1; Pten cells, but not in Rb1 cells",[4],37 genes
same,"genes upregulated upon TMZ treatment in Rb1; Zc3h13 and Rb1; Pten cells, but not in Rb1 cells",[4],60 genes
same,genes downregulated among all 3 genotypes upon TMZ treatment,[4]; [5],69 genes
same,genes upregulated in all 3 groups upon TMZ treatment,[4]; [5],42 genes
